Source: patent publication US11419806B2, “Prebiotic oral care methods using a saccharide” (Colgate-Palmolive Company, priority 2013, dated 2022)

Key:
Type in all cases: cell-based
[1] = test system: Actinomyces naeslundii; test: Phenotype microarray metabolic activity; conditions: A naeslundii
Description: (§1) The extent of metabolic activity of the tested bacteria in the presence of the above-mentioned saccharides after 24 hours and 48 hours was investigated through a high throughput phenotype microarray system (PM) for microbial cells (Biolog Inc.). Each PM can contain up to 95 different biochemical compounds (e.g. saccharides) that may act as substrates for bacteria as well as one negative control, not containing the substrates. Microarray plates were used in which the different wells of each plate were pre-loaded (by the manufacturer, Biolog Inc.) with different saccharides to be tested. Each bacterial species was tested using a separate microarray plate. Thus, a single bacterial species was tested with a variety of saccharides on each particular plate. The microarrays are based on redox technology, using cell respiration as a universal reporter. Active cell respiration results in the reduction of a tetrazolium dye and in the formation of a strong color—for example, when using the tetrazolium dye “Biolog Redox Dye Mix D”, the color changes from transparent/colorless to purple when the dye is reduced. The observation of this color change indicates which of the substrates improve the metabolic activity and health of the cells.
(§2) Each bacterial species was collected from blood agar plates (incubated for 48 hours anaerobically at 37° C.) and transferred to an IF-0 Base inoculation fluid (Biolog Inc.), which is a nutritionally poor medium. The resulting cell suspension was adjusted to a transmittance of 42% (relative to the transmittance of the base inoculation fluid with no bacterial species present) at 492 nm using a BioRad SmartSpec 3000 Photometer (the adjustment being effected by adding either further inoculation fluid or further bacteria until the transmittance of 42% was achieved). A 1:5 dilution of this suspension was prepared by mixing 3 mL of the 42% transmittance cell suspension with 15 mL of an inoculation fluid (which inoculation fluid was formed by mixing 11.6 mL sterile water, 62.5 mL IF-0 base inoculation fluid and 0.9 mL of the tetrazolium dye “Biolog Redox Dye mix D”), resulting in a final cell density which was equal to 85% transmittance using a BioRad SmartSpec 3000 Photometer. For each of the saccharides tested, the microarray plate (obtained from the supplier (Biolog Inc.) with saccharides already present in the relevant wells in powder form) was directly inoculated with 100 μL/well of this 85% transmittance cell suspension.
(§3) All plates were incubated in an anaerobic atmosphere at 37° C. Color changes were measured spectrophotometrically at 492 nm (Thermo Scientific Multiskan Ascent) at 24 hrs and 48 hrs using the same plate at both time points. […] After 24 hrs and 48 hrs under continuous shaking in a Multiscan microplate reader, the optical density (OD) of the synthetic medium at 24 hours and 48 hours was measured (using the microplate reader) at a wavelength of 492 nm for each combination of bacterium/saccharide, and for each of their respective controls (i.e. which contained the particular bacterium but no saccharide).
(§4) The experiment was carried out three times for each combination of bacterium with saccharide, with each repeat being carried out on a different day (thus providing three biological replicas). The controls were also carried out three times, as above. The values shown are the average (mean) of the three single values obtained (as detailed above) for each combination of bacterium with saccharide, at 24 hrs and at 48 hrs.

[2] = test system: Actinomyces viscosus; test: Phenotype microarray metabolic activity; conditions: A viscosus
Description: as §1, §2, §3, §4

[3] = test system: Aggregatibacter actinomycetemcomitans; test: Phenotype microarray metabolic activity; conditions: A actinomycetemcomitans
Description: as §1, §2, §3, §4

[4] = test system: Capnocytophaga sputigena; test: Phenotype microarray metabolic activity; conditions: C sputigena
Description: as §1, §2, §3, §4

[5] = test system: Fusobacterium nucleatum; test: Phenotype microarray metabolic activity; conditions: F nucleatum
Description: as §1, §2, §3, §4

[6] = test system: Porphyromonas gingivalis; test: Phenotype microarray metabolic activity; conditions: P gingivalis
Description: as §1, §2, §3, §4

[7] = test system: Prevotella intermedia; test: Phenotype microarray metabolic activity; conditions: P intermedia
Description: as §1, §2, §3, §4

[8] = test system: S sanguinis; test: Phenotype microarray metabolic activity
Description: as §1, §2, §3, §4

[9] = test system: Streptococcus gordonii; test: Phenotype microarray metabolic activity; conditions: S gordonii
Description: as §1, §2, §3, §4

[10] = test system: Streptococcus mitis; test: Phenotype microarray metabolic activity; conditions: S mitis
Description: as §1, §2, §3, §4

[11] = test system: Streptococcus mutans; test: Phenotype microarray metabolic activity; conditions: S mutans
Description: as §1, §2, §3, §4

[12] = test system: Streptococcus salivarius; test: Phenotype microarray metabolic activity; conditions: S salivarius
Description: as §1, §2, §3, §4

[13] = test system: Streptococcus sobrinus; test: Phenotype microarray metabolic activity; conditions: S sobrinus
Description: as §1, §2, §3, §4

[14] = test system: Tannerella forsythia; test: Phenotype microarray metabolic activity; conditions: T forsythia
Description: as §1, §2, §3, §4

[15] = test system: Veillonella parvula; test: Phenotype microarray metabolic activity; conditions: V parvula
Description: as §1, §2, §3, §4

[16] = test system: beneficial oral bacteria and pathogenic oral bacteria; test: Microarray screen, overall prebiotic assessment; conditions: 48 hrs
Description: Substrates that were able to increase the metabolic activity of at least one of the above beneficial bacteria while not or only minimally increasing the growth of the pathogenic bacteria are considered to be prebiotic substrates.
as §1, §2, §3, §4
This value was selected in order to exclude low-stimulating metabolites and avoid false positive results.

Structure (SMILES): OC[C@H]1O[C@@](CO)(O[C@H]2O[C@H](CO)[C@@H](O)[C@H](O)[C@H]2O)[C@@H](O[C@H]2O[C@H](CO)[C@@H](O)[C@H](O)[C@H]2O)[C@@H]1O [D-Melezitose, (2R,3R,4S,5S,6R)-2-[[(2S,3S,4R,5R)-4-hydroxy-2,5-bis(hydroxymethyl)-3-[[(2R,3R,4S,5S,6R)-3,4,5-trihydroxy-6-(hydroxymethyl)-2-tetrahydropyranyl]oxy]-2-tetrahydrofuranyl]oxy]-6-(hydroxymethyl)tetrahydropyran-3,4,5-triol]
- metabolic activity: OD 492 nm divided by OD of control (control = 1) ([1]; 24 hrs): 1.5398
- metabolic activity: OD 492 nm divided by OD of control (control = 1) ([1]; 48 hrs): 2.0357
- metabolic activity: OD 492 nm divided by OD of control (control = 1) ([2]; 24 hrs): 1.7502
- metabolic activity: OD 492 nm divided by OD of control (control = 1) ([2]; 48 hrs): 2.9576
- metabolic activity: OD 492 nm divided by OD of control (control = 1) ([3]; 24 hrs): 0.8425
- metabolic activity: OD 492 nm divided by OD of control (control = 1) ([3]; 48 hrs): 0.7710
- metabolic activity: OD 492 nm divided by OD of control (control = 1) ([4]; 24 hrs): 0.5937
- metabolic activity: OD 492 nm divided by OD of control (control = 1) ([4]; 48 hrs): 0.9124
- metabolic activity: OD 492 nm divided by OD of control (control = 1) ([5]; 24 hrs): 0.9719
- metabolic activity: OD 492 nm divided by OD of control (control = 1) ([5]; 48 hrs): 0.8307
- metabolic activity: OD 492 nm divided by OD of control (control = 1) ([6]; 24 hrs): 0.7783
- metabolic activity: OD 492 nm divided by OD of control (control = 1) ([6]; 48 hrs): 0.7811
- metabolic activity: OD 492 nm divided by OD of control (control = 1) ([7]; 24 hrs): 1.0189
- metabolic activity: OD 492 nm divided by OD of control (control = 1) ([7]; 48 hrs): 0.9864
- metabolic activity: OD 492 nm divided by OD of control (control = 1) ([8]; 24 hrs): 1.0227
- metabolic activity: OD 492 nm divided by OD of control (control = 1) ([8]; 48 hrs): 1.0532
- metabolic activity: OD 492 nm divided by OD of control (control = 1) ([9]; 24 hrs): 1.0421
- metabolic activity: OD 492 nm divided by OD of control (control = 1) ([9]; 48 hrs): 0.9733
- metabolic activity: OD 492 nm divided by OD of control (control = 1) ([10]; 24 hrs): 1.1736
- metabolic activity: OD 492 nm divided by OD of control (control = 1) ([10]; 48 hrs): 1.0570
- metabolic activity: OD 492 nm divided by OD of control (control = 1) ([11]; 24 hrs): 1.0420
- metabolic activity: OD 492 nm divided by OD of control (control = 1) ([11]; 48 hrs): 0.9402
- metabolic activity: OD 492 nm divided by OD of control (control = 1) ([12]; 24 hrs): 1.0195
- metabolic activity: OD 492 nm divided by OD of control (control = 1) ([12]; 48 hrs): 0.9869
- metabolic activity: OD 492 nm divided by OD of control (control = 1) ([13]; 24 hrs): 1.1016
- metabolic activity: OD 492 nm divided by OD of control (control = 1) ([13]; 48 hrs): 1.0504
- metabolic activity: OD 492 nm divided by OD of control (control = 1) ([14]; 24 hrs): 1.0374
- metabolic activity: OD 492 nm divided by OD of control (control = 1) ([14]; 48 hrs): 0.9912
- metabolic activity: OD 492 nm divided by OD of control (control = 1) ([15]; 24 hrs): 0.9056
- metabolic activity: OD 492 nm divided by OD of control (control = 1) ([15]; 48 hrs): 0.7447
- prebiotic effects (metabolic activity, threshold value 2) [16]: exhibited prebiotic effects
